Data reported in ChEMBL document CHEMBL3431459, “Roche carnitine palmitoyltransferase modulator screening data (supplementary data associated with the publication CHEMBL2216752)”.
pIC50: −log10 of the molar value. Converted amounts (≈) assume the structure as drawn.

Legend:
[1] = biological target: T1, Carnitine O-palmitoyltransferase 1, muscle isoform (Homo sapiens, UniProt Q92523); test: SUPPLEMENTARY: Inhibition of Carnitine palmitoyltransferase 1, muscle isoform; design: species or system Muscle tissue
T1 sequence (Q92523 whole entry): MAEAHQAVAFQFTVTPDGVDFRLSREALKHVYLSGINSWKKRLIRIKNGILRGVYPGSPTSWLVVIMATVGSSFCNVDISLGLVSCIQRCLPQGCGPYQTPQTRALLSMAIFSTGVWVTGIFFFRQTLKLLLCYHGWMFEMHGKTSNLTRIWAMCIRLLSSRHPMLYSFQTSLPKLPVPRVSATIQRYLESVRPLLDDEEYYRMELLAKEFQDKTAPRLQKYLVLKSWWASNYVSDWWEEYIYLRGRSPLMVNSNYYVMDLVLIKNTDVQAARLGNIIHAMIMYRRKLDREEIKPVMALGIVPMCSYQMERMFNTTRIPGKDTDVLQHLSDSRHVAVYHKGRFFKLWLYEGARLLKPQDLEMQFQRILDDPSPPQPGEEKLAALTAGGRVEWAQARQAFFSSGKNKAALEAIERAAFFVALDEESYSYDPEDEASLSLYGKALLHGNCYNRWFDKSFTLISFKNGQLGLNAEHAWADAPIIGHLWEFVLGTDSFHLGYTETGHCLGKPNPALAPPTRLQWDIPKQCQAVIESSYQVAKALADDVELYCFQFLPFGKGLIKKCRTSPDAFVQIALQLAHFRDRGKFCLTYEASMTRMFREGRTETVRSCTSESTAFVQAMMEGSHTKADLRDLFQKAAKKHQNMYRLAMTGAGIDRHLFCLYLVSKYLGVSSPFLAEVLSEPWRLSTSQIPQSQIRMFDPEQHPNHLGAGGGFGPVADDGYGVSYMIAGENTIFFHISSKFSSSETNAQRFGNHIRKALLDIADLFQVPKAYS

[2] = biological target: T2, Carnitine O-palmitoyltransferase 2, mitochondrial (Homo sapiens, UniProt P23786); test: (§1) SUPPLEMENTARY: Inhibition of Carnitine palmitoyltransferase 2
T2 sequence (P23786 whole entry): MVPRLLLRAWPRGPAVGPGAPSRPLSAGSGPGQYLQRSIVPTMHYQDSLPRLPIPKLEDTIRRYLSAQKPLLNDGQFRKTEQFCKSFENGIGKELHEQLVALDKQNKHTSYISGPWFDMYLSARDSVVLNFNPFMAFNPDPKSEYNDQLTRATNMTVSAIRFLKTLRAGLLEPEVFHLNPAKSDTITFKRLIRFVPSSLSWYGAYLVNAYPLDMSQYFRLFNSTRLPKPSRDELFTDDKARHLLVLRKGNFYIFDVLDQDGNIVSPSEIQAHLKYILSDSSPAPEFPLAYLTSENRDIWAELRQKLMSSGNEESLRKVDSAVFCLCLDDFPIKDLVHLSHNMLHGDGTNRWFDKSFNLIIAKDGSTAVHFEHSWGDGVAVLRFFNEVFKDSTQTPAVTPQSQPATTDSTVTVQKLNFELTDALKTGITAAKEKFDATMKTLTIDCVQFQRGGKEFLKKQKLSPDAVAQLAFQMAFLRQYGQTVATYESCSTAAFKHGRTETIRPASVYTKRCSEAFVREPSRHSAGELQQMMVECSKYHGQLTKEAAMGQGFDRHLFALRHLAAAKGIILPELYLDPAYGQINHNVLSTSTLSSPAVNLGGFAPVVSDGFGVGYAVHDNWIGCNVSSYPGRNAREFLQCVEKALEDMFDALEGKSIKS

[3] = biological target: T3, Carnitine O-palmitoyltransferase 2, mitochondrial (Rattus norvegicus, UniProt P18886); test: as §1
T3 sequence (P18886 whole entry): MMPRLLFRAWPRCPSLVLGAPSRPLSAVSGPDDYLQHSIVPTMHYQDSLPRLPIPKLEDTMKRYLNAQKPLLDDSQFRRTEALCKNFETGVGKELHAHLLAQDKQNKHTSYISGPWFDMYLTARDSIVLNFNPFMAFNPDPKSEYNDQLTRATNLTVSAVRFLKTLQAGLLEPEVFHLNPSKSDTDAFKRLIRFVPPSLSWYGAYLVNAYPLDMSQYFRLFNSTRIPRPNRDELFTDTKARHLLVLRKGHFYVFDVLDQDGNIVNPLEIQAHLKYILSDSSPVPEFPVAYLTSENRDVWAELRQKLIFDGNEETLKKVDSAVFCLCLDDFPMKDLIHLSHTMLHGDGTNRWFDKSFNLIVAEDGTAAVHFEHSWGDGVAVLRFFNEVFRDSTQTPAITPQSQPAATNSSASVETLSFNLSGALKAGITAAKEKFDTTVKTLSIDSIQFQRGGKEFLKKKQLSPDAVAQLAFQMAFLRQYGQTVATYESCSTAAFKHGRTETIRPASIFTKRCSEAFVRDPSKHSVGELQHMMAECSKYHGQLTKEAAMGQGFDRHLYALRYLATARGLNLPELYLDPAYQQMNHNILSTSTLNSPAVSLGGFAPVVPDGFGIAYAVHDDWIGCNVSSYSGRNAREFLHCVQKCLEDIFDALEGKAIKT

[4] = biological target: T4, Carnitine O-palmitoyltransferase 1, liver isoform (Homo sapiens, UniProt P50416); test: (§2) SUPPLEMENTARY: Inhibition of Carnitine palmitoyltransferase 1, liver isoform
T4 sequence (P50416 whole entry): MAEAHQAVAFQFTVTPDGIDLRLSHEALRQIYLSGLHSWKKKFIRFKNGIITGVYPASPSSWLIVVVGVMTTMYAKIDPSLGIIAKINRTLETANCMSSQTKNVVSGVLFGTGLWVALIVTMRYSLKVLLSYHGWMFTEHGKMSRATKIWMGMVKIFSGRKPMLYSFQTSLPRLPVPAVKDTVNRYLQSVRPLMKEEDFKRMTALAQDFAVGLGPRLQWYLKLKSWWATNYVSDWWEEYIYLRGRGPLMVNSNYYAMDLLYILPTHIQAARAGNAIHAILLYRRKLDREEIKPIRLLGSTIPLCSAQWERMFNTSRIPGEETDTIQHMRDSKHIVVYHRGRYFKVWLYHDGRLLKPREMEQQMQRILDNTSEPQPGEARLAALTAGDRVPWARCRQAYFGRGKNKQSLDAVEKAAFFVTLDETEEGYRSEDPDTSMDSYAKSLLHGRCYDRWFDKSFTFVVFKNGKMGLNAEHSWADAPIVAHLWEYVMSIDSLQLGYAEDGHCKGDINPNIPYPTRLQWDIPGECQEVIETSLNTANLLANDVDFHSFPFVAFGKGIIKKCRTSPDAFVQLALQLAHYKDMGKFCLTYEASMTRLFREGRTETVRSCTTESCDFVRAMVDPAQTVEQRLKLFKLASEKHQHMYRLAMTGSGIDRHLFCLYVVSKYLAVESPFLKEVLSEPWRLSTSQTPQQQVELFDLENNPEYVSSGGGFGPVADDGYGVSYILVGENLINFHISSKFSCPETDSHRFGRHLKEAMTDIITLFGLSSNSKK

[5] = biological target: T5, Carnitine O-palmitoyltransferase 1, liver isoform (Rattus norvegicus, UniProt P32198); test: as §2
T5 sequence (P32198 whole entry): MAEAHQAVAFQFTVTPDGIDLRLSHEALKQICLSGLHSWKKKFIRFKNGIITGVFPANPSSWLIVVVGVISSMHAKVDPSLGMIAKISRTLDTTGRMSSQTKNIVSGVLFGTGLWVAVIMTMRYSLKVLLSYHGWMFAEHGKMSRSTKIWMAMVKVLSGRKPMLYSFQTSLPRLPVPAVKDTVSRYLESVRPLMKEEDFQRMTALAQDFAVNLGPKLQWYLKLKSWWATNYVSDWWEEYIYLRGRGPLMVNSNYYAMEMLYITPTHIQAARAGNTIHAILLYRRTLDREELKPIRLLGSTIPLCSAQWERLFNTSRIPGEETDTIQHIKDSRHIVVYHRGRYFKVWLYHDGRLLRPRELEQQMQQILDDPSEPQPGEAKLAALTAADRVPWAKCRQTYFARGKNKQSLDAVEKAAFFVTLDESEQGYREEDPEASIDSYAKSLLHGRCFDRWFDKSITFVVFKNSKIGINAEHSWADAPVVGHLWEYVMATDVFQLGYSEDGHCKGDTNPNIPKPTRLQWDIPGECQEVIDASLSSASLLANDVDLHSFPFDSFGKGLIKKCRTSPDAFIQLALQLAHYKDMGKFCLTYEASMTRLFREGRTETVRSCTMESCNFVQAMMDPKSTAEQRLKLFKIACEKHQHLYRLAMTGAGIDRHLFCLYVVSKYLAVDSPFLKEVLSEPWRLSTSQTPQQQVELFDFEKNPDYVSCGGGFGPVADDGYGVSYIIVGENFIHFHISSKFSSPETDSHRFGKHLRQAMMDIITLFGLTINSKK

[6] = SUPPLEMENTARY: Lyophilisation Solubility Assay (LYSA); assay type: physicochemical; settings: read-out: Kinetic_solubility
[7] = SUPPLEMENTARY: Lipophilicity (log D) Determination by high-throughput shake-flask; assay type: physicochemical; settings: octanol/water
[8] = SUPPLEMENTARY: PAMPA permeability assay; assay type: physicochemical; settings: read-out: Permeability

Compound | pIC50 [1] | pIC50 [2] | pIC50 [3] | pIC50 [4] | pIC50 [5] | solubility kinetic [6] [mg/mL] | logD [7] | Papp [8] [nm/s]
O=C(COc1ccccc1)N1CCCC[C@@H]1c1noc(-c2cnnc3ccccc23)n1 | < 4.00 | 4.73 | 4.05 | 7.31 | 6.87 | 0.018 (≈ 43.3 µM) | 2.9 | 35.9
O=C(COc1ccccc1)N1CCCC[C@@H]1c1noc(-c2ccc3[nH]nnc3c2)n1 | < 4.00 | < 4.00 | < 4.00 | 7.10 | 6.04 | 0.0465 (≈ 115 µM) | 2.22 | 21.4
COc1ccc(Cl)cc1S(=O)(=O)N1CCOc2ncc(C(=O)Nc3ccccc3)cc21 | < 4.00 | < 4.00 | < 4.00 | 6.57 | 6.62 | 0.004 (≈ 8.7 µM) | 3.31 | 43.8
COc1ccc(Cl)cc1S(=O)(=O)N1C[C@H](C)c2ccc(C(=O)Nc3ccc(C(=O)O)cc3)cc21 | 5.85 | 6.16 | 5.67 | 7.12 | 7.10 | 0.003 (≈ 5.99 µM) | 3.01 | 28.3
COc1ccc(Cl)cc1S(=O)(=O)N1C[C@@H](C)c2ccc(C(=O)Nc3ccc(C(=O)O)cc3)cc21 | 5.17 | 6.34 | 5.85 | 7.44 | 7.54 | 0.006 (≈ 12 µM) | 2.98 | 28.6
O=C(COc1ccccc1)N1CCOC[C@@H]1c1nc(-c2ccc3[nH]cnc3c2)no1 | < 4.00 | < 4.00 | < 4.00 | 7.05 | 6.47 | 0.019 (≈ 46.9 µM) | 2.62 | 28
COc1ccc(Cl)cc1S(=O)(=O)N1CCOc2ncc(C(=O)Nc3ccc(C(=O)O)cc3)cc21 | < 4.00 | < 4.00 | < 4.00 | 6.48 | 6.77 | 0.047 (≈ 93.3 µM) | 0.2 | 7.4
Nc1ccc(-c2noc([C@H]3CCCCN3C(=O)COc3ccccc3)n2)cn1 | < 4.00 | < 4.00 | 4.52 | 7.46 | 6.66 | 0.081 (≈ 213 µM) | 2.62 | 44.4
O=C(COc1ccccc1)N1CCCC[C@@H]1c1noc(-c2ccc3[nH]cnc3c2)n1 | 4.48 | 4.82 | 4.18 | 7.53 | 6.63 | 0.06 (≈ 149 µM) | 2.26 | 30.3
COc1ccc(Cl)cc1S(=O)(=O)N1CCS(=O)(=O)c2ccc(C(=O)Nc3ccc(C(=O)O)cc3)cc21 | < 4.00 | < 4.00 | < 4.00 | 7.52 | 7.90 | 0.003 (≈ 5.44 µM) | 2.68 | 19
